Experimental data reported in PubChem BioAssay AID256 (DTP/NCI, 2004).
Several values for one entry are separate records, joined by “and”; a condition that tells them apart may be missing. Identical values can stand only once. Inconclusive results and toxic doses are left out. The calls were made as follows: active = survival T/C of 150% or more; inactive = T/C below 125% in these data.

System: CD2F1 mice, L1210 leukemia ip, survival T/C
Assay: NCI In Vivo Anticancer Drug Screen. Data for tumor model L1210 Leukemia (intraperitoneal) in CD2F1 (CDF1) mice
Details: endpoint: mean survival time, higher = longer survival
Procedure, shortened: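 Implant tumor; dose compound or vehicle; measure endpoint in both groups; report treated divided by control.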

[1] = dose: 12.5 mg/kg/injection, schedule: Q01DX001 (ip), vehicle: saline with Tween-80
[2] = dose: 100.0 mg/kg/injection, schedule: Q04DX003 (ip), vehicle: saline with Tween-80
[3] = dose: 200.0 mg/kg/injection, schedule: Q04DX003 (ip), vehicle: saline with Tween-80
[4] = dose: 400.0 mg/kg/injection, schedule: Q04DX003 (ip), vehicle: saline with Tween-80
[5] = dose: 100.0 mg/kg/injection, schedule: Q01DX001 (ip), vehicle: saline with Tween-80
[6] = dose: 200.0 mg/kg/injection, schedule: Q01DX001 (ip), vehicle: saline with Tween-80
[7] = dose: 400.0 mg/kg/injection, schedule: Q01DX001 (ip), vehicle: saline with Tween-80
[8] = dose: 100.0 mg/kg/injection, schedule: Q01DX009 (ip), vehicle: saline with Tween-80
[9] = dose: 200.0 mg/kg/injection, schedule: Q01DX009 (ip), vehicle: saline with Tween-80
[10] = dose: 75.0 mg/kg/injection, schedule: Q01DX001 (ip), vehicle: saline
[11] = dose: 150.0 mg/kg/injection, schedule: Q01DX001 (ip), vehicle: saline
[12] = dose: 100.0 mg/kg/injection, schedule: Q04DX003 (ip), vehicle: saline
[13] = dose: 200.0 mg/kg/injection, schedule: Q04DX003 (ip), vehicle: saline
[14] = dose: 12.5 mg/kg/injection, schedule: Q01DX005 (ip), vehicle: water
[15] = dose: 25.0 mg/kg/injection, schedule: Q01DX005 (ip), vehicle: water
[16] = dose: 50.0 mg/kg/injection, schedule: Q01DX005 (ip), vehicle: water
[17] = dose: 100.0 mg/kg/injection, schedule: Q01DX005 (ip), vehicle: water
[18] = dose: 200.0 mg/kg/injection, schedule: Q01DX005 (ip), vehicle: water
[19] = dose: 400.0 mg/kg/injection, schedule: Q04DX003 (ip), vehicle: saline

Measured: T/C

Nc1nc(-c2ccc([N+](=O)[O-])cc2)c([N+](=O)[O-])c(=O)[nH]1
inactive: dose: 3.13 mg/kg/injection, schedule: Q01DX009 (ip), vehicle: saline with Tween-80 96 % of control | dose: 6.25 mg/kg/injection, schedule: Q01DX009 (ip), vehicle: saline with Tween-80 95 % of control | [1] 94 % of control | dose: 12.5 mg/kg/injection, schedule: Q01DX009 (ip), vehicle: saline with Tween-80 95 % of control

CCCCN(CCCC)CCCN1C(=O)c2ccccc2C1=O
inactive: dose: 1.9 mg/kg/injection, schedule: Q01DX009 (ip), vehicle: saline 97 % of control | dose: 3.7 mg/kg/injection, schedule: Q01DX009 (ip), vehicle: saline 107 % of control | dose: 7.5 mg/kg/injection, schedule: Q01DX009 (ip), vehicle: saline 100 % of control | dose: 15.0 mg/kg/injection, schedule: Q01DX009 (ip), vehicle: saline 87 % of control | dose: 30.0 mg/kg/injection, schedule: Q01DX009 (ip), vehicle: saline 89 % of control and 105 % of control

Cc1cccc(Cl)c1NC(=O)C(C)N1CCCC1 (centres undefined)
inactive: dose: 12.5 mg/kg/injection, schedule: Q04DX003 (ip), vehicle: saline 100 % of control | dose: 25.0 mg/kg/injection, schedule: Q04DX003 (ip), vehicle: saline 107 % of control | dose: 50.0 mg/kg/injection, schedule: Q04DX003 (ip), vehicle: saline 104 % of control

COC(=O)CSC(=S)N(C)C
inactive: [2] 98 % of control | [3] 100 % of control | [4] 90 % of control

O=[N+]([O-])c1ccc(C2Nc3cc(Cl)c(Cl)cc3S(=O)(=O)N2O)cc1 (centres undefined)
inactive: [5] 97 % of control | dose: 100.0 mg/kg/injection, schedule: Q04DX002 (ip), vehicle: saline with Tween-80 107 % of control | [6] 96 % of control | dose: 200.0 mg/kg/injection, schedule: Q04DX002 (ip), vehicle: saline with Tween-80 107 % of control | [7] 96 % of control | dose: 400.0 mg/kg/injection, schedule: Q04DX002 (ip), vehicle: saline with Tween-80 103 % of control

O=C(O)CCC1CC(=O)OC12CCCCC2 (centres undefined)
inactive: [5] 96 % of control | [6] 96 % of control | [7] 91 % of control

CC(C)(C)C1CC[N-]CC1.CC(C)(C)C1CC[N-]CC1.[Cl][Pt+2][Cl]
inactive: dose: 75.0 mg/kg/injection, schedule: Q04DX002 (ip), vehicle: saline with Tween-80 95 % of control | dose: 150.0 mg/kg/injection, schedule: Q04DX002 (ip), vehicle: saline with Tween-80 98 % of control | dose: 300.0 mg/kg/injection, schedule: Q04DX002 (ip), vehicle: saline with Tween-80 107 % of control

CCOC(=O)C(C(C)=O)C(C)=O
inactive: [2] 102 % of control | [3] 94 % of control | [4] 94 % of control

CC(=O)CC1CC2(CCC1=O)OCCO2 (centres undefined)
inactive: [8] 102 % of control | [2] 98 % of control | [9] 96 % of control | [3] 93 % of control | dose: 400.0 mg/kg/injection, schedule: Q01DX009 (ip), vehicle: saline with Tween-80 100 % of control | [4] 102 % of control

Cc1ccc([N+](=O)[O-])cc1NC(=O)C(Cl)(Cl)Cl
inactive: [2] 93 % of control | [3] 93 % of control | [4] 107 % of control

Cc1cccc(-c2nn[nH]n2)n1
inactive: [1] 98 % of control | dose: 25.0 mg/kg/injection, schedule: Q01DX001 (ip), vehicle: saline with Tween-80 90 % of control | dose: 100.0 mg/kg/injection, schedule: Q01DX001 (ip), vehicle: saline 103 % of control | dose: 200.0 mg/kg/injection, schedule: Q01DX001 (ip), vehicle: saline 113 % of control | dose: 400.0 mg/kg/injection, schedule: Q01DX001 (ip), vehicle: saline 101 % of control

OCCC(c1ccccc1)C1CCCCN1 (centres undefined)
inactive: [10] 101 % of control | [11] 100 % of control

O=C(Nc1ccccc1)O/N=C(/c1ccccc1)c1ccccn1
inactive: dose: 100.0 mg/kg/injection, schedule: Q01DX001 (ip), vehicle: other 104 % of control | dose: 200.0 mg/kg/injection, schedule: Q01DX001 (ip), vehicle: other 98 % of control | dose: 400.0 mg/kg/injection, schedule: Q01DX001 (ip), vehicle: other 101 % of control

C1=Cc2ccccc2/C1=C/c1ccc(/C=C2\C=Cc3ccccc32)cc1
inactive: [8] 98 % of control | [9] 89 % of control | dose: 700.0 mg/kg/injection, schedule: Q01DX009 (ip), vehicle: saline with Tween-80 89 % of control

C1=CC(=C(C2CCC(Nc3ccccc3)CC2)C2CCC(Nc3ccccc3)CC2)C=CC1=Nc1ccccc1 (centres undefined)
inactive: dose: 50.0 mg/kg/injection, schedule: Q01DX009 (ip), vehicle: saline with Tween-80 103 % of control | [8] 101 % of control | [12] 104 % of control | [9] 107 % of control | [13] 104 % of control

CN(Cc1ccccc1)/C(N)=N/N
inactive: [10] 102 % of control | [11] 107 % of control

O=c1[nH][nH]c2nccnc12
inactive: [14] 93 % of control | [15] 93 % of control | [16] 96 % of control | [17] 98 % of control | [18] 101 % of control

CN(C)CCCNCCCCNCCCN(C)C
inactive: dose: 100.0 mg/kg/injection, schedule: Q01DX009 (ip), vehicle: saline 102 % of control | [12] 96 % of control | dose: 200.0 mg/kg/injection, schedule: Q01DX009 (ip), vehicle: saline 102 % of control | [13] 101 % of control | [19] 106 % of control

[CH3][Sn]([CH3])([Br])[CH2]CCCBr
inactive: dose: 0.39 mg/kg/injection, schedule: Q01DX009 (ip), vehicle: saline 90 % of control | dose: 0.78 mg/kg/injection, schedule: Q01DX009 (ip), vehicle: saline 94 % of control | dose: 1.56 mg/kg/injection, schedule: Q01DX009 (ip), vehicle: saline 92 % of control | dose: 6.25 mg/kg/injection, schedule: Q01DX009 (ip), vehicle: saline 98 % of control | dose: 12.5 mg/kg/injection, schedule: Q01DX009 (ip), vehicle: saline 91 % of control

CC(C(C(=O)O)S(=O)(=O)O)C(C(=O)O)S(=O)(=O)O (centres undefined)
inactive: dose: 12.5 mg/kg/injection, schedule: Q01DX001 (ip), vehicle: other 91 % of control | dose: 25.0 mg/kg/injection, schedule: Q01DX001 (ip), vehicle: other 95 % of control | dose: 50.0 mg/kg/injection, schedule: Q01DX001 (ip), vehicle: other 98 % of control

Nc1cc(Cl)c([N+](=O)[O-])cc1O
inactive: dose: 50.0 mg/kg/injection, schedule: Q01DX009 (ip), vehicle: Klucel (hydroxypropylcellulose) (HPC) 91 % of control | dose: 100.0 mg/kg/injection, schedule: Q01DX009 (ip), vehicle: Klucel (hydroxypropylcellulose) (HPC) 94 % of control | dose: 200.0 mg/kg/injection, schedule: Q01DX009 (ip), vehicle: Klucel (hydroxypropylcellulose) (HPC) 94 % of control

CC1(O)Nc2nc3c(ncn3C3OC(CO)C(O)C3O)c(=O)n2C1O (centres undefined)
inactive: [14] 106 % of control | [15] 95 % of control | [16] 93 % of control | [17] 101 % of control | [18] 95 % of control

O=[N+]([O-])c1ccc(S(=O)(=O)Cl)c(Cl)c1
inactive: dose: 18.8 mg/kg/injection, schedule: Q01DX009 (ip), vehicle: saline with Tween-80 91 % of control | dose: 37.5 mg/kg/injection, schedule: Q01DX009 (ip), vehicle: saline with Tween-80 100 % of control | dose: 75.0 mg/kg/injection, schedule: Q01DX009 (ip), vehicle: saline with Tween-80 95 % of control | [12] 98 % of control | [13] 89 % of control | [19] 86 % of control

COC(=O)c1ccccc1NC(=O)Nc1cccc(OC)c1
inactive: dose: 100.0 mg/kg/injection, schedule: Q01DX001 (ip), vehicle: Klucel (hydroxypropylcellulose) (HPC) 95 % of control | dose: 200.0 mg/kg/injection, schedule: Q01DX001 (ip), vehicle: Klucel (hydroxypropylcellulose) (HPC) 101 % of control | dose: 400.0 mg/kg/injection, schedule: Q01DX001 (ip), vehicle: Klucel (hydroxypropylcellulose) (HPC) 95 % of control
